Test results as given in paper PMC10619430, “Xenobiotic Exposure and Migraine-Associated Signaling: A Multimethod Experimental Study Exploring Cellular Assays in Combination with Ex Vivo and In Vivo Mouse Models” (Environmental Health Perspectives, 2023).

Tests used:
Type in all cases: cell-based
[1] = molecular target: T1, human TRPA1 channel (hTRPA1) (Homo sapiens, UniProt O75762); assay: fluo-4 calcium imaging in hTRPA1-HEK vs control cells at […]; conditions: read-out: % of ionomycin response at 100 μM
T1 sequence (O75762 whole entry): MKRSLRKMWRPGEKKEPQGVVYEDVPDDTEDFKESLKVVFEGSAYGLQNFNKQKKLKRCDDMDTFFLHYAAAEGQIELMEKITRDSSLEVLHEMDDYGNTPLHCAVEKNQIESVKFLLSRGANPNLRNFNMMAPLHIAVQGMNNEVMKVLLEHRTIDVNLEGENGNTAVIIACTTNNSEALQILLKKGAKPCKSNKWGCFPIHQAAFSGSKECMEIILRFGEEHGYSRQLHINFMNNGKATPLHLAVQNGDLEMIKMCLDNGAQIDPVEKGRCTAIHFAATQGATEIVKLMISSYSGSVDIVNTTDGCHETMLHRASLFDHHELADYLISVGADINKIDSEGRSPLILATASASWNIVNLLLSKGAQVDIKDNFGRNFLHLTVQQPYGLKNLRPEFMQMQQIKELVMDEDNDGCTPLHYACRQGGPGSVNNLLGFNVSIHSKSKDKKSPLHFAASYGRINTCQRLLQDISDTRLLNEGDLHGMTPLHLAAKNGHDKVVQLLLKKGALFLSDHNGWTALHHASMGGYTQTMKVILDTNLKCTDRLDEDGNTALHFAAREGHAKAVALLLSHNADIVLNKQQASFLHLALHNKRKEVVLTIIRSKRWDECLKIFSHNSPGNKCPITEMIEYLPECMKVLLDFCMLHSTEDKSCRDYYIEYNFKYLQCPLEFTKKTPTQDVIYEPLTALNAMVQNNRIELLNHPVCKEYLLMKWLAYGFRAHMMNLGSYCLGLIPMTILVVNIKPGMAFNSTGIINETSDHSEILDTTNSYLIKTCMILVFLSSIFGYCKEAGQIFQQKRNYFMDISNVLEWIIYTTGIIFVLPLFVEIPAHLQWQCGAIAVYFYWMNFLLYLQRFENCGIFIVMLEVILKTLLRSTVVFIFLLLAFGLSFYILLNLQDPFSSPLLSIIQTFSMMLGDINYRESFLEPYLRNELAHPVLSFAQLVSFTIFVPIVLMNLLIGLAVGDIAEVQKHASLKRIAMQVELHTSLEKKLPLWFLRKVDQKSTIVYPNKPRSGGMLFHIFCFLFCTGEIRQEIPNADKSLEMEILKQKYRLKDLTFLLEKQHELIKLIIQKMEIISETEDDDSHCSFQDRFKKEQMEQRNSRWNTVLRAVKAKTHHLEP

[2] = molecular target: T1, human TRPA1 channel (hTRPA1); assay: fluo-4 calcium imaging in hTRPA1-HEK vs control cells at […] ([…] of ionomycin, […] of SCA response)
[3] = molecular target: T1, human TRPA1 channel (hTRPA1); assay: whole-cell patch clamp in hTRPA1-HEK cells vs control cells; calcium imaging

| SMILES | activation at 100 µM [1] [%] | other results |
| --- | --- | --- |
| O=C(OCc1ccccc1)c1ccc(O)cc1 [BzPa, Benzyl 4-hydroxybenzoate] | 34.2 |  |
| CC(C)(c1ccc(O)cc1)c1ccc(O)cc1 [BPA, 4-[2-(4-hydroxyphenyl)propan-2-yl]phenol] | 11 |  |
| Oc1c(Cl)cc(Cl)c(Cl)c1Cc1c(O)c(Cl)cc(Cl)c1Cl [HCP, 3,4,6-trichloro-2-[(2,3,5-trichloro-6-hydroxyphenyl)methyl]phenol] |  | activation at 10 µM [2]: 47% |
| Oc1c(Cl)c(Cl)c(Cl)c(Cl)c1Cl [PCP, 2,3,4,5,6-pentachlorophenol] |  | EC50 [3]: 15 µM |
